Read-outs that look alike come from different tables or passages of the source.
How the values were obtained:
RS4;11 cells = test: Cell viability assay, MTS, 48 h, RS4;11; format: cell-based; conditions: 48 hours, read-out: IC50 (48 hours) RS4;11
Procedure: (§1) Acute lymphoblastic leukemia cells (MOLT-4 and RS4; 11) or small cell lung cancer (NCI-H146 or simply H146) were incubated with increasing concentrations of Bcl-xL degraders for 48 h. Cell viability was measured by tetrazolium-based MTS assay.

MOLT-4 cells = test: Cell viability assay, MTS, 48 h, MOLT-4; format: cell-based; conditions: 48 hours, read-out: IC50 (48 hours) MOLT-4
Procedure: as §1

Compound | IC50 (RS4;11 cells; Homo sapiens, RS4-11, 48 h) [nM] | IC50 (MOLT-4 cells; Homo sapiens, MOLT-4, 48 h) [nM] | IC50 (RS4;11 cells) [nM] | IC50 (MOLT-4 cells) [nM]
Cc1ncsc1-c1ccc([C@H](C)NC(=O)[C@@H]2C[C@@H](O)CN2C(=O)[C@@H](NC(=O)CCCCCCCCCC(=O)N2CCC(c3ccc(Cl)cc3)=C(CN3CCN(c4ccc(C(=O)NS(=O)(=O)c5ccc(N[C@H](CCN6CCOCC6)CSc6ccccc6)c(S(=O)(=O)C(F)(F)F)c5)cc4)CC3)C2)C(C)(C)C)cc1 [compound 84, (2S,4R)-1-((S)-2-(11-(4-(4-chlorophenyl)-5-((4-(4-(((4-(((R)-4-morpholino-1-(phenylthio)butan-2-yl)amino)-3-((trifluoromethyl)sulfonyl)phenyl)sulfonyl)carbamoyl)phenyl)piperazin-1-yl)methyl)-3,6-dihydropyridin-1(2H)-yl)-11-oxoundecanamido)-3,3-dimethylbutanoyl)-4-hydroxy-N—((S)-1-(4-(4-methylthiazol-5-yl)phenyl)ethyl)pyrrolidine-2-carboxamide] | 150 to 500 | 150 to 500 | – | –
Cc1ncsc1-c1ccc([C@H](C)NC(=O)[C@@H]2C[C@@H](O)CN2C(=O)[C@@H](NC(=O)CCCCCCC(=O)N2CCN(CC3(C)CCC(c4ccc(Cl)cc4)=C(CN4CCN(c5ccc(C(=O)NS(=O)(=O)c6ccc(N[C@H](CCN7CCOCC7)CSc7ccccc7)c(S(=O)(=O)C(F)(F)F)c6)cc5)CC4)C3)CC2)C(C)(C)C)cc1 (stereo partly drawn) [degrader #17, (2S,4R)-1-((2S)-2-(8-(4-((4′-chloro-4-methyl-6-((4-(4-(((4-(((R)-4-morpholino-1-(phenylthio)butan-2-yl)amino)-3-((trifluoromethyl)sulfonyl)phenyl)sulfonyl)carbamoyl)phenyl)piperazin-1-yl)methyl)-2,3,4,5-tetrahydro-[1,1′-biphenyl]-4-yl)methyl)piperazin-1-yl)-8-oxooctanamido)-3,3-dimethylbutanoyl)-4-hydroxy-N—((S)-1-(4-(4-methylthiazol-5-yl)phenyl)ethyl)pyrrolidine-2-carboxamide] | < 50 | < 50 | – | –
Cc1ncsc1-c1ccc([C@H](C)NC(=O)[C@@H]2C[C@@H](O)CN2C(=O)[C@@H](NC(=O)CCCCC(=O)N2CCN(CC3(C)CCC(c4ccc(Cl)cc4)=C(CN4CCN(c5ccc(C(=O)NS(=O)(=O)c6ccc(N[C@H](CCN7CCOCC7)CSc7ccccc7)c(S(=O)(=O)C(F)(F)F)c6)cc5)CC4)C3)CC2)C(C)(C)C)cc1 (stereo partly drawn) [degrader #15, (2S,4R)-1-((2S)-2-(6-(4-((4′-chloro-4-methyl-6-((4-(4-(((4-(((R)-4-morpholino-1-(phenylthio)butan-2-yl)amino)-3-((trifluoromethyl)sulfonyl)phenyl)sulfonyl)carbamoyl)phenyl)piperazin-1-yl)methyl)-2,3,4,5-tetrahydro-[1,1′-biphenyl]-4-yl)methyl)piperazin-1-yl)-6-oxohexanamido)-3,3-dimethylbutanoyl)-4-hydroxy-N—((S)-1-(4-(4-methylthiazol-5-yl)phenyl)ethyl)pyrrolidine-2-carboxamide] | 50 to 150 | 50 to 150 | – | –
Cc1ncsc1-c1ccc([C@H](C)NC(=O)[C@@H]2C[C@@H](O)CN2C(=O)[C@@H](NC(=O)CCCCCCCCC(=O)N2CCC(c3ccc(Cl)cc3)=C(CN3CCN(c4ccc(C(=O)NS(=O)(=O)c5ccc(N[C@H](CCN6CCOCC6)CSc6ccccc6)c(S(=O)(=O)C(F)(F)F)c5)cc4)CC3)C2)C(C)(C)C)cc1 [compound 83, (2S,4R)-1-((S)-2-(10-(4-(4-chlorophenyl)-5-((4-(4-(((4-(((R)-4-morpholino-1-(phenylthio)butan-2-yl)amino)-3-((trifluoromethyl)sulfonyl)phenyl)sulfonyl)carbamoyl)phenyl)piperazin-1-yl)methyl)-3,6-dihydropyridin-1(2H)-yl)-10-oxodecanamido)-3,3-dimethylbutanoyl)-4-hydroxy-N—((S)-1-(4-(4-methylthiazol-5-yl)phenyl)ethyl)pyrrolidine-2-carboxamide] | 150 to 500 | 50 to 150 | – | –
Cc1ncsc1-c1ccc([C@H](C)NC(=O)[C@@H]2C[C@@H](O)CN2C(=O)[C@@H](NC(=O)CCCCCCC(=O)NCCN(C)CC2(C)CCC(c3ccc(Cl)cc3)=C(CN3CCN(c4ccc(C(=O)NS(=O)(=O)c5ccc(N[C@H](CCN6CCOCC6)CSc6ccccc6)c(S(=O)(=O)C(F)(F)F)c5)cc4)CC3)C2)C(C)(C)C)cc1 (stereo partly drawn) [compound 61, N1-(2-(((4′-chloro-4-methyl-6-((4-(4-(((4-(((R)-4-morpholino-1-(phenylthio)butan-2-yl)amino)-3-((trifluoromethyl)sulfonyl)phenyl)sulfonyl)carbamoyl)phenyl)piperazin-1-yl)methyl)-2,3,4,5-tetrahydro-[1,1′-biphenyl]-4-yl)methyl)(methyl)amino)ethyl)-N8-((S)-1-((2S,4R)-4-hydroxy-2-(((S)-1-(4-(4-methylthiazol-5-yl)phenyl)ethyl)carbamoyl)pyrrolidin-1-yl)-3,3-dimethyl-1-oxobutan-2-yl)octanediamide] | 50 to 150 | 150 to 500 | – | –
Cc1ncsc1-c1ccc([C@H](C)NC(=O)[C@@H]2C[C@@H](O)CN2C(=O)[C@@H](NC(=O)CCCCCCCC(=O)N2CCN(CC3(C)CCC(c4ccc(Cl)cc4)=C(CN4CCN(c5ccc(C(=O)NS(=O)(=O)c6ccc(N[C@H](CCN7CCOCC7)CSc7ccccc7)c(S(=O)(=O)C(F)(F)F)c6)cc5)CC4)C3)CC2)C(C)(C)C)cc1 (stereo partly drawn) [degrader #18, (2S,4R)-1-((2S)-2-(9-(4-((4′-chloro-4-methyl-6-((4-(4-(((4-(((R)-4-morpholino-1-(phenylthio)butan-2-yl)amino)-3-((trifluoromethyl)sulfonyl)phenyl)sulfonyl)carbamoyl)phenyl)piperazin-1-yl)methyl)-2,3,4,5-tetrahydro-[1,1′-biphenyl]-4-yl)methyl)piperazin-1-yl)-9-oxononanamido)-3,3-dimethylbutanoyl)-4-hydroxy-N—((S)-1-(4-(4-methylthiazol-5-yl)phenyl)ethyl)pyrrolidine-2-carboxamide] | < 50 | < 50 | – | –
(2S,4R)-1-((S)-2-(8-(4-(4-chlorophenyl)-5-((4-(4-(((4-(((R)-4-morpholino-1-(phenylthio)butan-2-yl)amino)-3-((trifluoromethyl)sulfonyl)phenyl)sulfonyl)carbamoyl)phenyl)piperazin-1-yl)methyl)-3,6-dihydropyridin-1(2H)-yl)-8-oxooctanamido)-3,3-dimethylbutanoyl)-4-hydroxy-N—((S)-1-(4-(4-methylthiazol-5-yl)phenyl)ethyl)pyrrolidine-2-carboxamide [Example 3] | – | – | 50 to 150 | 150 to 500
Cc1ncsc1-c1ccc([C@H](C)NC(=O)[C@@H]2C[C@@H](O)CN2C(=O)[C@@H](NC(=O)CN2CCN(CC3(C)CCC(c4ccc(Cl)cc4)=C(CN4CCN(c5ccc(C(=O)NS(=O)(=O)c6ccc(N[C@H](CCN7CCOCC7)CSc7ccccc7)c(S(=O)(=O)C(F)(F)F)c6)cc5)CC4)C3)CC2)C(C)(C)C)cc1 (stereo partly drawn) [compound 67, (2S,4R)-1-((2S)-2-(2-(4-((4′-chloro-4-methyl-6-((4-(4-(((4-(((R)-4-morpholino-1-(phenylthio)butan-2-yl)amino)-3-((trifluoromethyl)sulfonyl)phenyl)sulfonyl)carbamoyl)phenyl)piperazin-1-yl)methyl)-2,3,4,5-tetrahydro-[1,1′-biphenyl]-4-yl)methyl)piperazin-1-yl)acetamido)-3,3-dimethylbutanoyl)-4-hydroxy-N—((S)-1-(4-(4-methylthiazol-5-yl)phenyl)ethyl)pyrrolidine-2-carboxamide] | 50 to 150 | 50 to 150 | – | –

Source: US20220169628A1 (University of Florida Research Foundation, Incorporated, priority 2019, published 2022)
